Results taken from patent publication US20160302455A1, “Methods Of Producing An Antimicrobial Solution And Methods For Reducing Bacteria On Produce And/Or Minimizing Enzymatic Browning Of Produce” (priority 2015, published 2016).
Like-named read-outs stand apart in the source and are kept apart here. Ends that are not written are not given here.

Assays:
[1] = system: L. monocytogenes; format: cell-based, Listeria monocytogenes
[2] = system: Salmonella spp.; format: cell-based
[3] = system: E. coli O157:H7; format: cell-based, Escherichia coli O157:H7
[4] = system: Aerobic, mesophilic bacteria; format: cell-based
[5] = system: E. coli O157:H7; format: cell-based, Escherichia coli O157:H7; remark: listed apart in the source
[6] = system: Aerobic mesophilic bacteria
[7] = system: Aerobic mesophilic bacteria; remark: listed apart in the source
[8] = system: Salmonella spp.; format: cell-based; remark: listed apart in the source
[9] = system: L. monocytogenes; format: cell-based, Listeria monocytogenes; remark: listed apart in the source

| Compound | Log reduction of L. monocytogenes on cantaloupe rind surface [1] | Log reduction of Salmonella spp on cantaloupe rind surface [2] | Log reduction of E. coli O157:H7 on cantaloupe rind surface [3] | Log reduction of aerobes on cantaloupe rind surface [4] | Average population of E. coli O157:H7 inactivated [5] [log] | Population of aerobic mesophilic bacteria, fresh-cut [6] [D Log10 CFU/g] | Population of aerobic mesophilic bacteria, fresh-cut [7] [D Log10 CFU/g] | Average population of Salmonella inactivated [8] [log] | Population of aerobic mesophilic bacteria, fresh-cut [4] [C Log10 CFU/g] | Average population of L. monocytogenes inactivated [9] [log] |
| --- | --- | --- | --- | --- | --- | --- | --- | --- | --- | --- |
| C/C=C/C=C/C(=O)O [Sorbic acid (0.03%), Sorbic acid] | (2.2) log | (2.0) log | (1.8) log | (1.1) log |  |  |  |  |  |  |
| O=C(O)CN(CCN(CC(=O)O)CC(=O)O)CC(=O)O [EDTA (0.02 M), ethylenediaminetetraacetic acid] | (0.2) log | (0.4) log | (0.3) log | (0.4) log |  |  |  |  |  |  |
| O=C(O)CC(O)(CC(=O)O)C(=O)O [Citric Acid (10 mM), Citric acid] | (2.0) log | (1.8) log | (1.5) log | (1.2) log |  |  |  |  |  |  |
| OO [hydrogen peroxide] | (3.4) log | (3.0) log | (2.9) log | (2.0) log | 5.5 | 0.5 ± 0.10 | 0.3 ± 0.02 | 5.1 | 1.9 ± 0.10 | 5.0 |
| nisin (ITSISLCTPGCKTGALMGCNMKTATCHCSIHVSK; not fully specified (some residues, bridges); cysteine pairing not given here; UniProt P13068 24-57, looked up) [Nisin (30 mg; (~10 μg/ml)] | (3.6) log |  |  | (1.2) log |  |  |  |  |  |  |
| Sodium Lactate [Sodium Lactate (2%)] | (2.8) log | (1.5) log | (1.4) log | (1.1) log |  |  |  |  |  |  |
